Experimental data as given in patent US20240041908A1, “IMMUNOMODULATORY OLIGOSACCHARIDES FOR THE TREATMENT OF AUTISM SPECTRUM DISORDER” (Intrinsic Medicine, Inc., priority 2020, published 2024).
Read-outs that look alike come from different tables or passages of the source.

How the values were obtained:
TNFα and IL-8 = conditions: independent anti-inflammatory effects; cited from earlier work
[1] = system: murine and human derived macrophages stimulated with LPS; conditions: cited from earlier work; for IL-1β, IL-2, IL-4, IL-6, IL-12, IFNγ or TNF-α: in vitro
[2] = system: child, diagnosed with ASD with frequent anxiety and episodes of self harm; test: Case report: child diagnosed with ASD given oral 3′-sialyllactose daily; assay type: in vivo, human; conditions: 40-50 mg/kg per day orally once a day
Description: A child, diagnosed with ASD with frequent anxiety and episodes of self harm, was given 40-50 mg/kg per day 3′-sialyllactose (Glycom, food grade, GRAS) dosed orally once a day.

For `CC1O[C@@H](OC2[C@H](O[C@H]3C(O)C(O)C(O)O[C@H]3CO)OC(CO)[C@H](O)[C@@H]2O)C(O)[C@@H](O)[C@@H]1O` (some centres unmarked) [2′fucosyllactose, 2′-fucosyllactose], the “TNFα and IL-8” value (TNFα and IL-8) is given as “reduction”.
In the case of `CC(=O)N[C@H]1C([C@H](O)[C@H](O)CO)O[C@@](O[C@@H]2C(O)[C@H](O[C@@H]3C(CO)O[C@@H](O)C(O)[C@H]3O)OC(CO)[C@@H]2O)(C(=O)O)C[C@H]1O` (some centres unmarked) [3′-sialyllactose], the “PDL1, COX2 and select chemokines such as CCL2 (MCP1) and CCL5” value [1] is listed as “reduce”, the “IL-1β, IL-2, IL-4, IL-6, IL-12, IFNγ or TNF-α” value (“IL-1β … IFNγ or TNF-α” for short) ([1]; listed as 3′-SL) is listed as “more significant reductions” and the “IL-1β … IFNγ or TNF-α” value ([1]; listed as 3′SL) is listed as “reductions”. The heart rate ([2]; measured by parent before and after treatment) was “reduction in heart rate”, the anxiety ([2]; noted by parent) was “significant decrease” and the self-harm episodes ([2]; noted by parent) was “significant decrease”.
In the case of `CC(=O)N[C@H]1C([C@H](O)[C@H](O)CO)O[C@@](OCC2O[C@@H](O[C@@H]3C(CO)O[C@@H](O)C(O)[C@H]3O)C(O)[C@@H](O)[C@H]2O)(C(=O)O)C[C@H]1O` (some centres unmarked) [6′SL, 6′-sialyllactose], the “IL-1β … IFNγ or TNF-α” value [1] is listed as “reductions”.
